Source: US20050260730A1, “CDK2/cyclin A crystals and uses thereof” (priority 2003, published 2005)
Where two headings read alike, the source gives them in different places. Non-standard residues stand in square brackets, D forms with d. Residues, ends and D or L forms follow the SMILES beside them. Phe(4-F) = N[C@@H](Cc1ccc(F)cc1)C(=O)O

Experiments:
CDK2/cyclin A = CDK2/cyclin A (Homo sapiens, UniProt P20248); assay: CDK2/cyclin A kinase activity assay; assay type: biochemical
cyclin A = cyclin A (Homo sapiens, UniProt P20248); assay: Competitive cyclin A binding assay
[1] = read-out: IC50 CDK2/cyclin A kinase activity

cyclin A, sequence (P20248 whole entry): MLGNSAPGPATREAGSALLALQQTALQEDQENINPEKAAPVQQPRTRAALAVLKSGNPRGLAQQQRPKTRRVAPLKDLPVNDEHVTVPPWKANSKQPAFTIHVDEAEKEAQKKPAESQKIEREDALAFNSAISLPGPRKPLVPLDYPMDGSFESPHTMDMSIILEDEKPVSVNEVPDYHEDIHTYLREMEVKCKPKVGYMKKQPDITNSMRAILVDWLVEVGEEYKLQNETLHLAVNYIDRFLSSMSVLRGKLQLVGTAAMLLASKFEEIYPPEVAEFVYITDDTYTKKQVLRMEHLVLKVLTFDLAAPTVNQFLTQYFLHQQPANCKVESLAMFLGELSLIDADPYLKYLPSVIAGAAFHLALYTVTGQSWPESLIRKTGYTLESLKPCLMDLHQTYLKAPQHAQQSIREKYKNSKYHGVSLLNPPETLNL

| IC50 (CDK2/cyclin A) [µM] | IC50 (cyclin A) [µM] | IC50 (CDK2/cyclin A; [1]) [µM] | SMILES |
| --- | --- | --- | --- |
| > 50 | – | – | CC(=O)N[C@@H](CCCN=C(N)N)C(=O)N[C@@H](CCCN=C(N)N)C(=O)N[C@@H](CC(C)C)C(=O)N[C@@H](CC(N)=O)C(=O)N[C@@H](Cc1ccccc1)C(N)=O [SEQ ID NO: 30, Ac-Arg-Arg-Leu-Asn-Phe-NH2] |
| – | 8.1 | > 50 | CC(C)C[C@H](NC(=O)[C@H](CCCNC(=N)N)NC(=O)[C@@H](N)CCCNC(=N)N)C(=O)N[C@@H](Cc1ccccc1)C(N)=O [SEQ ID NO: 20, H-Arg-Arg-Leu-Phe-NH2] (H-RRLF-NH2) |
| – | 19 | 50 | CC(C)C[C@H](NC(=O)[C@H](CCCNC(=N)N)NC(=O)[C@@H](N)CCCNC(=N)N)C(=O)N[C@@H](Cc1ccc(F)cc1)C(N)=O [SEQ ID NO: 29, H-Arg-Arg-Leu-—-(p-F-Phe)-NH2] (H-RRL[Phe(4-F)]-NH2) |
